We go through four molecules from patent US20250195681A1, “ANTI-GPC3 ANTIBODY DRUG CONJUGATE AND USE THEREOF” (DUALITY BIOLOGICS (SUZHOU) CO., LTD., priority 2022, published 2025).

Broadly, the IC50 is the midpoint of a concentration-inhibition curve.

For one test, the system named is NCI-N87. The test is described as follows: In vitro proliferation inhibition of small molecule payloads, CTG, 6 days (3.3). The conditions noted are these: Homo sapiens, NCI-N87, 144 h, read-out: Abs-IC50 NCI-N87. The class given is cell-based. On the procedure: (§1) To detect the in vitro proliferation inhibitory activity of the drug compounds on NCI-N87 and Colo205 tumor cells. Cells were treated with different concentrations of the compounds in vitro, and after 6 days of culture, cell proliferation was detected using the CTG (CellTiter-Glo® Luminescent Cell Viability Assay, Promega, Cat. No.: G7558) reagent. The IC50 value was used to assess the in vitro activity of the compounds.
(§2) 1. Cell culture: NCI-N87 and Colo205 cells were cultured in RPMI-1640 medium containing 10% FBS.
(§3) 2. Cell preparation: NCI-N87 and Colo205 cells in the logarithmic growth phase were washed once with PBS, then digested with 2-3 mL of trypsin for 2-3 minutes. Once the cells were fully digested, 10-15 mL of cell culture medium was added to wash off the digested cells. The mixture was then centrifuged at 1000 rpm for 5 minutes, then the supernatant was discarded, and the cells were resuspended in 10-20 mL of cell culture medium to prepare a single-cell suspension.
(§4) 3. Cell plating: The single-cell suspension of NCI-N87 and Colo205 was mixed well, and the density of viable cells was adjusted to 6×10^4 cells/mL using a cell culture medium. The density-adjusted cell suspension was mixed well and added to a 96-well cell culture plate at 50 μL per well. The culture plate was incubated in an incubator for 18 hours (37° C., 5% CO2).
(§5) 4. Compound preparation: The compounds were dissolved in DMSO to prepare stock solutions with an initial concentration of 10 mM.
(§6) Eight concentrations of the small molecule compounds were prepared: 300, 100, 30, 10, 3, 1, 0.3, and 0.1 nM.
(§7) 5. Sample addition operation: The prepared samples at different concentrations were added to a culture plate, with two replicate wells for each sample. The culture plate was incubated in an incubator for 6 days (37° C., 5% CO2).
6. […]
(§8) 7. Plate reading operation: The 96-well cell culture plate was placed in a microplate reader, and the chemiluminescence was measured with the microplate reader.
(§9) Data analysis: The data were processed and analyzed using Microsoft Excel and GraphPad Prism 5.

Another test has as its system Colo205. Described as above. The class given is cell-based. The conditions noted are these: Homo sapiens, COLO 205, 144 h, read-out: Abs-IC50 Colo205. As to the method: as §1, §2, §3, §4, §5, §6, §7
6. […]
as §8, §9

The test system of a further test is JIMT-1. The test is described as follows: In vitro proliferation inhibition of small molecule payloads, CTG, 6 days (3.2). The class given is cell-based. The conditions noted are these: Homo sapiens, JIMT-1, 144 h, read-out: JIMT-1 IC50. On the procedure: To detect the in vitro proliferation inhibitory activity of the drug compounds on NCI-N87, JIMT-1, and MBA-MB-231 tumor cells. Cells were treated with different concentrations of the compounds in vitro, and after 6 days of culture, cell proliferation was detected using the CTG (CellTiter-Glo® Luminescent Cell Viability Assay, Promega, Cat. No.: G7558) reagent. The IC50 value was used to assess the in vitro activity of the compounds.
1. Cell culture: NCI-N87, JIMT-1, and MBA-MB-231 cells were cultured in RPMI-1640 medium containing 10% FBS.
2. Cell preparation: NCI-N87, JIMT-1, and MBA-MB-231 cells in the logarithmic growth phase were washed once with PBS, then digested with 2-3 mL of trypsin for 2-3 minutes. […]
as §8, §9
8. Data analysis: The cell viability was calculated using the formula: Vsample/Vvehicle control x 100% where Vsample represents the reading from the drug-treated group, and Vvehicle control represents the average value of the vehicle control group. GraphPad Prism software was used to plot the S-shaped dose-viability curve using a nonlinear regression model, and the IC50 values were calculated.

For test [1], the system named is advanced liver cancer. The conditions noted are these: Phase II; cited from earlier work.
Test [2] deals with advanced liver cancer. The conditions noted are these: patients with high GPC3 expression; cited from earlier work.

Consider `CC[C@@]1(O)C(=O)OCc2c1cc1n(c2=O)Cc2c-1nc1cc(F)c(C)c3c1c2[C@@H](NC(=O)CO)CC3` [Preparation Example 9, DXd, reference compound], for which the IC50 was found to be 13.9 nM in the test on NCI-N87 and 294 nM with Colo205.
`CC[C@@]1(O)C(=O)OCc2c1cc1n(c2=O)Cc2c-1nc1cc(F)c(C)c3c1c2[C@@H](NC(=O)CCN)CC3` [Reference Example 1]: the half-inhibitory concentration (IC50) in the test with JIMT-1 is 36.2 nM.
As to `CC[C@@]1(O)C(=O)OCc2c1cc1n(c2=O)Cc2c-1nc1cc(F)c(C)c3c1c2[C@@H](NC(=O)CCO)CC3` [Preparation Example 8], in the test with NCI-N87, the IC50 was 15.1 nM.
Codrituzumab: in the test on advanced liver cancer [1], the “survival (in words)” value is “did not demonstrate a statistically significant improvement in survival”. For the same molecule, in the test on advanced liver cancer [2], the “disease progression (in words)” value was “showed a trend of delayed disease progression”.
